For 28 molecules, EC50 results are on record in US20250034170A1, “SMALL MOLECULE MODULATORS OF GLUCOCEREBROSIDASE ACTIVITY AND USES THEREOF” (Vanqua Bio, Inc., priority 2021, published 2025).

As usually defined, the EC50 is the concentration at which the effect is half-maximal.

This assay concerns the target T1, GCase (Homo sapiens, UniProt P04062).
T1 construct: endogenous in cells; host or cells: HeLa cells
T1 sequence (P04062 40-536): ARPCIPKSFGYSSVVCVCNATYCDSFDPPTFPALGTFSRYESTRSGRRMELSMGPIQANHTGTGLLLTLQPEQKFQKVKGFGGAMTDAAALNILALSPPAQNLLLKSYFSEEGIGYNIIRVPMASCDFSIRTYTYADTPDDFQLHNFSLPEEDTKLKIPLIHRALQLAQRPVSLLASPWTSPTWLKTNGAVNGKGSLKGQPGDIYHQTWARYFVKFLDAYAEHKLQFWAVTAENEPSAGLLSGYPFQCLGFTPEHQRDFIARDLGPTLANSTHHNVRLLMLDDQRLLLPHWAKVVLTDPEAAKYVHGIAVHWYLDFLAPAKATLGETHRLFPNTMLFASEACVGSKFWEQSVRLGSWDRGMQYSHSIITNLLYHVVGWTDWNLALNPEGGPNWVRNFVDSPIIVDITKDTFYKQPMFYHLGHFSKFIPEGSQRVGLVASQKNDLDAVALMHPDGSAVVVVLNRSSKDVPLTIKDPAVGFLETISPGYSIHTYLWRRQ
The experiment in a line: activation of GCase in a live cell PFB assay in HELA cells. In kind it is cell-based. The conditions noted are these: activation of GCase, EC50 ranges. On the procedure: Exemplary compounds were evaluated for activation of GCase in a live cell PFB assay in HELA cells (essentially as described in Ysselstein et al., “LRRK2 kinase activity regulates lysosomal glucocerebrosidase in neurons derived from Parkinson's disease patients” Nature Communications (2019) 10:5570). […] EC50 ranges: A: <10 μM; B: >10-50 μM; C: >50-100 μM; D: >100 μM.
Consider `O=C1CC2(CCN(c3cnc4cnn(CC(F)F)c4n3)CC2)CN1Cc1ccc(C(F)(F)F)nc1` [Cmpd 307], for which the EC50 was less than 10 µM.
Regarding `O=C1N(Cc2ccc(C(F)(F)F)nc2)CCC12CCN(c1cnc3cnn(CC(F)F)c3n1)CC2` [Cmpd 308], the 50% effective concentration (EC50) fell in the range of 10 to 50 µM.
The molecule `O=C1CC2(CCN(c3cnc4cnn(CC(F)F)c4n3)CC2)CN1Cc1ccc(C(F)(F)F)cn1` [Cmpd 309] had an EC50 of 10 to 50 µM.
In turn, `O=C1N(Cc2ccc(C(F)(F)F)cn2)CCC12CCN(c1cnc3cnn(CC(F)F)c3n1)CC2` [Cmpd 310] had an EC50 of 10 to 50 µM.
As to `O=C1N(c2cc(C(F)(F)F)ccn2)C2(CC2)CC12CCN(c1cnc3cnn(CC(F)F)c3n1)CC2` [Cmpd 311], the EC50 is 10 to 50 µM.
For `O=C1N(c2ccc(C(F)(F)F)cn2)C2(CC2)CC12CCN(c1cnc3cnn(CC(F)F)c3n1)CC2` [Cmpd 312], the 50% effective concentration (EC50) lay within 50 to 100 µM.
Regarding `O=C(c1ccc(C(F)(F)F)nc1)N1CCC2(CCN(c3cnc4cnn(CC(F)F)c4n3)CC2)C1` [Cmpd 313], the EC50 fell in the range of 10 to 50 µM.
Under `O=C(c1ccc(C(F)(F)F)cn1)N1CCC2(CCN(c3cnc4cnn(CC(F)F)c4n3)CC2)C1` [Cmpd 314] stands more than 100 µM.
Regarding `O=C1CCC2(CN(c3cnc4cnn(CC(F)F)c4n3)C2)CN1c1ccc(C(F)(F)F)cn1` [Cmpd 315], the EC50 lay within 10 to 50 µM.
Molecule `FC(F)Cn1ncc2ncc(N3CCC4(CN(c5cnc(C(F)(F)F)nc5)C4)C3)nc21` [Cmpd 316] yielded an EC50 of 10 to 50 µM.
The molecule `FC(F)Cn1ncc2ncc(N3CCC4(CN(c5cnc(C(F)(F)F)cn5)C4)C3)nc21` [Cmpd 317] gave an EC50 of 10 to 50 µM.
On to `FC(F)Cn1ncc2ncc(N3CCC4(CN(c5ccnc(C(F)(F)F)n5)C4)C3)nc21` [Cmpd 318], for which the EC50 lay in the range of 10 to 50 µM.
`FC(F)Cn1ncc2ncc(N3CCC4(C3)CN(c3ncc(C(F)(F)F)cn3)C4)nc21` [Cmpd 319] registered an EC50 of 10 to 50 µM.
The molecule `FC(F)Cn1ncc2ncc(N3CCC4(CN(Cc5ccc(C(F)(F)F)nc5)C4)C3)nc21` [Cmpd 320] had a half-maximal effective concentration (EC50) of less than 10 µM.
Take `FC(F)Cn1ncc2ncc(N3CCC4(CN(Cc5ccc(C(F)(F)F)cn5)C4)C3)nc21` [Cmpd 321]: the EC50 is less than 10 µM.
Consider `O=C(c1ccc(C(F)(F)F)nc1)N1CC2(CCN(c3cnc4cnn(CC(F)F)c4n3)C2)C1` [Cmpd 322], for which the EC50 lay within 10 to 50 µM.
In turn, `O=C(c1ccc(C(F)(F)F)cn1)N1CC2(CCN(c3cnc4cnn(CC(F)F)c4n3)C2)C1` [Cmpd 323] had an EC50 of more than 100 µM.
Under `O=C(c1cnc(C(F)(F)F)nc1)N1CCC2(CCN(c3cnc4cnn(CC(F)F)c4n3)CC2)C1` [Cmpd 324] stands 10 to 50 µM; under `O=C(c1cnc(C(F)(F)F)nc1)N1CC2(CCN(c3cnc4cnn(CC(F)F)c4n3)C2)C1` [Cmpd 325], 10 to 50 µM; under `O=C(c1cnc(C(F)(F)F)nc1)N1CC2(CCN(c3cnc4cnn(CC(F)F)c4n3)CC2)C1` [Cmpd 326], 10 to 50 µM.
Take `O=C(c1ccc(C(F)(F)F)nc1)N1CC2(CCN(c3cnc4cnn(CC(F)F)c4n3)CC2)C1` [Cmpd 327]: the EC50 was in the range of 10 to 50 µM.
Under `O=C(c1ccc(C(F)(F)F)cn1)N1CC2(CCN(c3cnc4cnn(CC(F)F)c4n3)CC2)C1` [Cmpd 328] stands 10 to 50 µM.
In the case of `O=C(c1cnc(C(F)(F)F)nc1)N1CCC2(CC1)CN(c1cnc3cnn(CC(F)F)c3n1)C2` [Cmpd 329] it was 10 to 50 µM.
`O=C(c1ccc(C(F)(F)F)cn1)N1CCC2(CC1)CN(c1cnc3cnn(CC(F)F)c3n1)C2` [Cmpd 330]: the EC50 lay in the range of 10 to 50 µM.
`O=C1N(Cc2cncc(F)c2)CCC12CCN(c1cnc3cnn(CC(F)F)c3n1)CC2` [Cmpd 331] had an EC50 of 10 to 50 µM.
As to `O=C1N(Cc2cncc(C(F)(F)F)c2)CCC12CCN(c1cnc3cnn(CC(F)F)c3n1)CC2` [Cmpd 332], the EC50 was less than 10 µM.
Turning to `O=C1N(Cc2cncc(Cl)c2)CCC12CCN(c1cnc3cnn(CC(F)F)c3n1)CC2` [Cmpd 333], the EC50 is less than 10 µM.
For `O=C1CC2(CCN(c3cnc4cnn(CC(F)F)c4n3)CC2)CN1Cc1cncc(F)c1` [Cmpd 334], the EC50 was 50 to 100 µM.
